Like-named read-outs stand apart in the source and are kept apart here.

One data set deals with Piezo1. To be noted: cited from earlier work.
The target of another data set is T1, HSA (Homo sapiens, UniProt P02768).
T1 construct: from tissue; host or cells: serum
The following applies: cited from earlier work.

For data set [1] the following is noted: cited from earlier work.
Data set [2] concerns the target human serum albumin (HSA) (Homo sapiens, UniProt P02768). To be noted: cited from earlier work.
The conditions of data set [3]: cited from earlier work. The source holds these as a separate data set.
Data set [4] can be described thus: Serum concentration of CMPF in normal and uremic subjects. In kind it is in vivo, human. To be noted: uremic versus average normal concentration. As to the method: FIG. 4 illustrates carboxy-4-methyl-5-propyl-2-furanpropionate (CMPF) 401 in accordance with the present disclosure. CMPF is a 240 Da metabolite of furan fatty acids and a protein-bound uremic retention solute normally cleared by the healthy kidney. In CKD patients, CMPF levels are increased 5- to 15-fold compared to healthy subjects.
An average normal concentration for CMPF may be a mean (±SD) of about 4.6±1.8 with a range between about 3.6 and 7.7 mg/L. In uremic patients the mean concentration (CU) is about 25.9±10.2 mg/L (with a range of about 3.7 to 94 mg/L).
Accordingly, the relative increase (CU/CN) may be over 5-times higher than the average normal concentration. […] As much as 99.5% of all CMPF may be found bound to HSA in serum. Consequently, this high association to HSA may prevent a sufficient secretion due to lower renal clearance rates in uremic patients, for example, at a rate of about 0.05 mL/min, compared to 0.40 mL/min for healthy patients. Due to its strong binding affinity to HSA, the removal of CMPF through conventional hemodialysis is generally difficult and even practically ineffective.

Another data set deals with HSA's binding site 1 (Homo sapiens, UniProt P02768). To be noted: cited from earlier work.
Chain of HSA's binding site 1 (P02768 25-609): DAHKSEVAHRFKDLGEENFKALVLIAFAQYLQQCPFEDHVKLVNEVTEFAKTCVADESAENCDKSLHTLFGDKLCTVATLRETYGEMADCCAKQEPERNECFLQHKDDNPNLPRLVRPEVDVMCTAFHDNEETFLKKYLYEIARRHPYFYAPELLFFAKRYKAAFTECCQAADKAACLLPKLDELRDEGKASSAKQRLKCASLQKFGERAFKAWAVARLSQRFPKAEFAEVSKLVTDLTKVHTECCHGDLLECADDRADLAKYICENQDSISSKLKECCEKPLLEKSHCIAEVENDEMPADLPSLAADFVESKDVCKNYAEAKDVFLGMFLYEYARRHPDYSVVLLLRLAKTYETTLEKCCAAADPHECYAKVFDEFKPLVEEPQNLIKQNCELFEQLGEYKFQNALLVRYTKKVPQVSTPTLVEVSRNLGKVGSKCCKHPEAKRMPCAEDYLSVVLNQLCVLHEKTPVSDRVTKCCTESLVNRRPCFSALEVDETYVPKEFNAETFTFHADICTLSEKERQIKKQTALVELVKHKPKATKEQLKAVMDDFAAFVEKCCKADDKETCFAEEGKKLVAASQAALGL

T1 sequence (P02768 25-609): as above
Chain of human serum albumin (HSA) (P02768 25-609): as above

For the molecule `Cc1oc(-c2ccccc2)cc1C(=O)O` [Jedi1], the Piezo1 stimulation result in the data set on Piezo1 was “stimulate Piezo1”.
Consider `CCCc1oc(CCC(=O)O)c(C(=O)O)c1C` [CMPF, 3-carboxy-4-methyl-5-propyl-2-furanpropionate], for which, on HSA, the “CMPF found bound to HSA in serum” value was at most 99.5%. Moreover, the renal clearance rate in data set [1] (healthy patients) was 0.40 mL/min; in data set [1] (uremic patients), “about 0.05 mL/min”. In data set [2], the “constant of association with HSA molecules” value is listed as “about 10^8 M^−1”. Besides, the “average normal concentration, mean (±SD)” value in data set [3] (normal) is on record as “about 4.6±1.8 mg/L”. Further, the “mean concentration (CU)” value in data set [3] (uremic patients) is “about 25.9±10.2 mg/L”. In addition, the “relative increase (CU/CN)” value in data set [4] is recorded as “over 5 times”.
For the molecule `CC(C)C1=CC(=O)C2(C)C(C1=O)C1(C)C(=O)C=C(C(C)C)C(=O)C21` (centres unmarked) [DTQ, dithymoquinone], the “binding affinity towards HSA's binding site 1 relative to CMPF” value on HSA's binding site 1 is listed as “higher binding affinity towards HSA's binding site 1 than CMPF”.
`Cc1oc(-c2cccs2)cc1C(=O)O` [Jedi2]: the Piezo1 stimulation result with Piezo1 is listed as “stimulate Piezo1”.
As to `Clc1cccc(Cl)c1CSc1nnc(-c2cnccn2)s1` [Yoda1], the Piezo1 stimulation result in the data set with Piezo1 is reported as “stimulate Piezo1”.

The values above are taken from patent US20230405201A1, “TECHNIQUES FOR INCREASING RED BLOOD CELL COUNT” (FRESENIUS MEDICAL CARE HOLDINGS, INC., priority 2020, published 2023).
